# Measured values from US10617680B2 (CELGENE QUANTICEL RESEARCH, INC., priority 2017, dated 2020).
# Target: CBP (Homo sapiens (Human), UniProt Q92793)
# Test: In vitro CBP inhibition (AlphaScreen, biotinylated H4-tetraacetyl peptide)
# Format: binding
# Details: not given
# Procedure: The CBP-inhibitory activity of the compounds described herein was determined by calculating the IC50. More specifically, CBP inhibitor activity was assayed as follows: CBP was cloned and expressed in E. coli as His-tag protein and purified by Nickel affinity and gel-filtration chromatography. […] CBP binding and inhibition is assessed by monitoring the interaction of biotinylated H4-tetraacetyl peptide (AnaSpec, H4K5/8/12/16(Ac), biotin-labeled) with the target using the AlphaScreen technology (Perkin Elmer). In a 384-well ProxiPlate CBP (50 nM final) was combined with peptide (20 nM final) in 50 mM HEPES (pH 7.3), 10 mM NaCl, 0.25 mM TCEP, 0.1% (w/v) BSA, and 0.005% (w/v) Brij-35 either in the presence of DMSO (final 0.4% DMSO) or compound dilution series in DMSO. After 20 min incubation at room temp, Alpha-streptavidin donor beads and Nickel Chelate acceptor beads were added to a final concentration of 5 μg/mL.
# The ability of the compounds disclosed herein to inhibit CBP activity was quantified and the respective IC50 value determined.
# Sequence of CBP (Q92793 1081-1197): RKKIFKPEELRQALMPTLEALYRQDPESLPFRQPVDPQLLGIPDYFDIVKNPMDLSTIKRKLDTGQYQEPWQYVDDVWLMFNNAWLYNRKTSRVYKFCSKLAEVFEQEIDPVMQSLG
row,SMILES,IC50
1,"Cn1cc(-c2cnn(CC3CC3)c2)c(-c2ccc(C#N)cc2)cc1=O [Example 156, 4-[5-(1-cyclopropyl-methyl-1H-pyrazol-4-yl)-1-methyl-2-oxo-1,2-dihydro-pyridin-4-yl]-benzonitrile]",500 to 5000 nM

# Same assay, conditions: AlphaScreen, Table 29; read-out: CBP IC50
row,SMILES,IC50
1,"CC(C)Oc1cc(=O)n(C)cc1-c1cnn(C(C)c2ccccc2)c1 (centres unmarked) [Example 36, 4-isopropoxy-1-methyl-5-(1-(1-phenylethyl)-1H-pyrazol-4-yl)pyridin-2(1H)-one]",< 500 nM
2,"CNc1ccc(-c2cc(=O)n(C)cc2-c2cnn(-c3cccc(Cl)c3C#N)c2)cn1 [Example 341, 2-chloro-6-(4-(1′-methyl-6-(methylamino)-6′-oxo-1′,6′-dihydro-[3,4′-bipyridin]-3′-yl)-1H-pyrazol-1-yl)benzonitrile]",< 500 nM
3,"COc1cc(-c2cc(=O)n(C)cc2-c2cnn(-c3ccccc3C#N)c2)cc(OC)c1OC [Example 246, 2-{4-[1-Methyl-6-oxo-4-(3,4,5-trimethoxy-phenyl)-1,6-dihydro-pyridin-3-yl]-pyrazol-1-yl}-benzonitrile]",500 to 5000 nM
4,"Cn1cc(-c2cnn(Cc3ccccc3)c2)c(-n2cccc2)cc1=O [Example 68, 5-(1-benzyl-1H-pyrazol-4-yl)-1-methyl-4-(1H-pyrrol-1-yl) pyridi-2(1H)-one]",< 500 nM
5,"Cn1cc(-c2cnn3c2CCC3)c(-c2ccccc2)cc1=O [Example 162, 5-(5,6-dihydro-4H-pyrrolo[1,2-b]pyrazol-3-yl)-1-methyl-4-phenylpyridin-2(1H)-one]",< 500 nM
6,"COc1ccc(C#N)c(-n2cc(-c3cn(C)c(=O)cc3-c3ccccc3)cn2)c1 [Example 261, 4-Methoxy-2-[4-(1-methyl-6-oxo-4-phenyl-1,6-dihydro-pyridin-3-yl)-pyrazol-1-yl]-benzonitrile]",< 500 nM
7,"Cn1ccc(-c2cc(=O)n(C)cc2-c2cnn(-c3cccc(C4CC4)c3C#N)c2)cc1=O [Example 380, 2-cyclopropyl-6-[4-[1-methyl-4-(1-methyl-2-oxo-4-pyridyl)-6-oxo-3-pyridyl]pyrazol-1-yl]benzonitrile]",< 500 nM
8,Cn1cc(-c2cc(=O)n(C)cc2-c2cnn(-c3ccccc3S(C)(=O)=O)c2)ccc1=O [Example 287],500 to 5000 nM
9,"CCOc1ccc(-c2cc(=O)n(C)cc2-c2cnn(-c3ccccc3C#N)c2)cn1 [Example 234, 2-[4-(6-Ethoxy-1′-methyl-6′-oxo-1′,6′-dihydro-[3,4′]bipyridinyl-3′-yl)-pyrazol-1-yl]-benzonitrile]",< 500 nM
10,"Cn1cc(-c2cnn(-c3cccc(Cl)c3C#N)c2)c(-c2ccc(NCC3CC3)nc2)cc1=O [Example 348, 2-chloro-6-(4-{6-[(cyclopropylmethyl)amino]-1′-methyl-6′-oxo-1′,6′-dihydro-[3,4′-bipyridine]-3′-yl}-1H-pyrazol-1-yl)benzonitrile]",< 500 nM
11,"COc1ccc(-c2cc(=O)n(C)cc2-c2cnn(-c3ccccc3-c3nnn[nH]3)c2)cc1 [Example 298, 4-(4-Methoxy-phenyl)-1-methyl-5-{1-[2-(1H-tetrazol-5-yl)-phenyl]-1H-pyrazol-4-yl}-1H-pyridin-2-one]",< 500 nM
12,"Cn1cc(-c2cnn(-c3cccc(Cl)c3C#N)c2)c(-c2ccc(OC3CCCC3)nc2)cc1=O [Example 352, 2-chloro-6-[4-[4-[6-(cyclopentoxy)-3-pyridyl]-1-methyl-6-oxo-3-pyridyl]pyrazol-1-yl]benzonitrile]",< 500 nM
13,"CCOc1cc(=O)n(C)cc1-c1cnn(Cc2ccccc2C(=O)OC)c1 [Example 70, methyl 2-((4-(4-ethoxy-1-methyl-6-oxo-1,6-dihydropyridin-3-yl)-1H-pyrazol-1-yl)methyl)benzoate]",< 500 nM
14,"CNc1ncc(-c2cc(=O)n(C)cc2-c2cnn(-c3ccccc3C(=O)NC#N)c2)cn1 [Example 295, N-cyano-2-(4-(1-methyl-4-(2-(methylamino)pyrimidin-5-yl)-6-oxo-1,6-dihydropyridin-3-yl)-1H-pyrazol-1-yl)benzamide]",< 500 nM
15,"CC(c1ccccc1)n1cc(-c2cn(C)c(=O)cc2-n2cccn2)cn1 (centres unmarked) [Example 53, 1-methyl-5-(1-(1-phenylethyl)-1H-pyrazol-4-yl)-4-(1H-pyrazol-1-yl) pyridin-2(1H)-one]",< 500 nM
16,"Cc1cc(-c2cnn(-c3ccccc3C(=O)O)c2)cn(C)c1=O [Example 255, 2-[4-(1,5-Dimethyl-6-oxo-1,6-dihydro-pyridin-3-yl)-pyrazol-1-yl]-benzoic acid]",< 500 nM
17,"CN(C)C(=O)Cn1cc(-c2cn(C)c(=O)cc2-c2ccccc2)cn1 [Example 135, N,N-dimethyl-2-(4-(1-methyl-6-oxo-4-phenyl-1,6-dihydropyridin-3-yl)-1H-pyrazol-1-yl)acetamide]",< 500 nM
18,"Cn1cc(-c2cn(C)c(=O)cc2-n2cccc2)cn1 [Example 83, 1-methyl-5-(1-methyl-1H-pyrazol-4-yl)-4-(1H-prrol-1-yl) pyridin-2(1H)-one]",< 500 nM
19,"Cn1cc(-c2cnn(Cc3ccccc3)c2)c(-c2ccc(F)cc2)cc1=O [Example 149, 5-(1-benzyl-1H-pyrazol-4-yl)-4-(4-fluorophenyl)-1-methyl-pyridin-2(1H)-one]",< 500 nM

row,SMILES,IC50
1,"Cn1cc(-c2cn(C)c(=O)cc2-c2ccccc2)cn1 [Example 107, 1-methyl-5-(1-methyl-1H-pyrazol-4-yl)-4-phenylpyridin-2(1H)-one]",< 500 nM
2,"CCOC(=O)c1c(-c2cc(C)c(=O)n(C)c2)cnn1Cc1ccccc1 [Example 199, 2-Benzyl-4-(1,5-dimethyl-6-oxo-1,6-dihydro-pyridin-3-yl)-2H-pyrazole-3-carboxylic acid ethyl ester]",< 500 nM
3,"Cn1cc(-c2cc(=O)n(C)cc2-c2cnn(CC3CC3(F)F)c2)cn1 (centres unmarked) [Example 192, 5-[1-(2,2-Difluoro-cyclopropylmethyl)-1H-pyrazol-4-yl]-1-methyl-4-(1-methyl-1H-pyrazol-4-yl)-1H-pyridin-2-one]",< 500 nM
4,"Cn1cc(-c2cnn(Cc3ccccc3)c2)c(-c2ccccn2)cc1=O [Example 131, 5′-(1-benzyl-1H-pyrazol-4-yl)-1′-methyl-[2,4′-bipyridin]-2′(1′H)-one]",500 to 5000 nM
5,"Cn1cc(-c2cnn(CC3CC3)c2)c(-c2ccc(Cl)cc2)cc1=O [Example 153, 4-(4-chloro-phenyl)-5-(1-cyclopropylmethyl-1H-pyrazol-4-yl)-1-methyl-1H-pyridin-2-one]",< 500 nM
6,"Cn1cc(-c2cnn(Cc3ccccc3)c2)c(-n2ccc(C(N)=O)c2)cc1=O [Example 85, 1-(5-(1-benzyl-1H-pyrazol-4-yl)-1-methyl-2-oxo-1,2-dihydropyridin-4-yl)-1H-pyrrole-3-carboxamide]",< 500 nM
7,"CCc1cc(-c2cnn(-c3ccccc3C#N)c2)cn(C)c1=O [Example 256, 2-[4-(5-Ethyl-1-methyl-6-oxo-1,6-dihydro-pyridin-3-yl)-pyrazol-1-yl]-benzonitrile]",< 500 nM
8,"Cn1cc(-c2cnn(-c3ccccc3C#N)c2)c(-c2cccnc2)cc1=O [Example 237, 2-[4-(1′-Methyl-6′-oxo-1′,6′-dihydro-[3,4′]bipyridinyl-3′-yl)-pyrazol-1-yl]-benzonitrile]",< 500 nM
9,"CC(c1ccccc1)n1cc(-c2cn(C)c(=O)cc2Cl)cn1 (centres unmarked) [Example 38, 4-chloro-1-methyl-5-(1-(1-phenyl-ethyl)-1H-pyrazol-4-yl) pyridin-2(1H)-one]",< 500 nM
10,"CCOc1cc(=O)n(C)cc1-c1cnn(Cc2ccc(-c3cnn(C)c3)cc2)c1 [Example 102, 4-ethoxy-1-methyl-5-{1-[4-(1-methyl-1H-pyrazol-4-yl)-benzyl]-1H-pyrazol-4-yl}-1H-pyridin-2-one]",< 500 nM
11,"CCOc1cc(=O)n(C)cc1-c1cnn(C(C)c2ccc(-c3cnn(C)c3)cc2)c1 (centres unmarked) [Example 100, 4-ethoxy-1-methyl-5-(1-{1-[4-(1-methyl-1H-pyrazol-4-yl)-phenyl]-ethyl}-1H-pyrazol-4-yl)-1H-pyridin-2-one]",< 500 nM
12,"CC(C)Cn1cc(-c2cn(C)c(=O)cc2-c2ccccc2)cn1 [Example 137, 5-(1-isobutyl-1H-pyrazol-4-yl)-1-methyl-4-phenylpyridin-2(1H)-one]",< 500 nM
13,"CC(C)Oc1ccc(-c2cc(=O)n(C)cc2-c2cnn(-c3cccc(F)c3C#N)c2)cn1 [Example 358, 2-fluoro-6-[4-[4-(6-isopropoxy-3-pyridyl)-1-methyl-6-oxo-3-pyridyl]pyrazol-1-yl]benzonitrile]",< 500 nM
14,"CNNc1cc(=O)n(C)cc1-c1cnn(Cc2ccccc2)c1 [Example 99, 5-(1-benzyl-1H-pyrazol-4-yl)-1-methyl-4-(2-methyl-hydrazinyl)-pyridin-2(1H)-one]",500 to 5000 nM
15,"CCOc1cc(=O)n(C)cc1-c1cnn(C2CCCN(S(C)(=O)=O)C2)c1 (centres unmarked) [Example 181, 4-ethoxy-1-methyl-5-(1-(1-(methylsulfonyl)piperidin-3-yl)-1H-pyrazol-4-yl)pyridin-2(1H)-one]",< 500 nM
16,"Cn1cc(-c2cnn(-c3cccc(Cl)c3C#N)c2)c(-c2ccc(C(F)(F)F)nc2)cc1=O [Example 370, 2-chloro-6-(4-(1′-methyl-6′-oxo-6-(trifluoromethyl)-1′,6′-dihydro-[3,4′-bipyridin]-3′-yl)-1H-pyrazol-1-yl)benzonitrile]",< 500 nM
17,"Cn1cc(-c2cnn(-c3ccccc3C#N)c2)c(-c2ccc(C(=O)O)cc2)cc1=O [Example 217, 4-{5-[1-(2-Cyano-phenyl)-1H-pyrazol-4-yl]-1-methyl-2-oxo-1,2-dihydro-pyridin-4-yl}-benzoic acid]",< 500 nM
18,"Cn1cc(-c2cnn(Cc3ccccc3)c2)c(N)cc1=O [Example 200, 4-amino-5-(1-benzyl-1H-pyrazol-4-yl)-1-methylpyridin-2(1H)-one]",500 to 5000 nM
